Consider 10 compounds from US8269026B2, “Lupane derivatives useful for treating HIV” (priority 2008, dated 2012).

Usually pIC50 stands for −log10 of the IC50, conventionally taken in molar units.

pIC50: −log10 of the molar value. Structures can show the parent of a compound that is named as a salt. Where two headings read alike, the source gives them in different places.

The experiment concerns HIV-1 (HIVIIIB) replication in MT2 cell line. Nature of the experiment: HIV-1 replication in MT2 cell line with and without 30% human serum (viral RT activity in supernatant). The experiment is classed as cell-based. The following applies: Human immunodeficiency virus 1, MT2 cells, average IC50 if tested more than once. The method, then: HIV-1 Replication in MT2 cell line with and without 30% human serum: The cells are infected at a Multiciplicity of Infection (MOI) of 0.5 for 3 h and then washed twice with complete media to remove residual virus. Cells are then resuspended at 0.5×10^6/ml in complete medium (RPMI, 10% FBS, 1% sodium pyruvate), and seeded into 96-well plates (6.25×10^4/well). The cells are cultured in the presence or absence of various concentrations of test compounds in serial dilutions for 3 days at 37° C. The test compounds are serially diluted in complete medium supplemented or not with 30% human serum. After 3 days, 100 μL of cultured medium with cells are replaced with 120 μL of freshly diluted test compounds in complete medium containing or not 30% Human serum. The level of HIV-1 replication is determined at days 5 after infection by the presence of viral RT activity in harvested supernatant fluid. The IC50 and IC90 values for the virus replication are determined by using GRAPHPAD PRISM software.
The IC50 of the compounds tested in accordance with the HIV replication activity assay MT2 (HIVIIIB) are represented in Table 1.

[1] abbreviates: with 30% human serum, read-out: MT2 (HIVIIIB) with HS 30% IC50 range.
[2] abbreviates: without human serum, read-out: MT2 (HIVIIIB) IC50 range.

In the case of `CC(C)C1=C2C3CCC4[C@@]5(C)CC[C@H](OC(=O)CC(C)(C)C(=O)O)C(C)(C)C5CC[C@@]4(C)[C@]3(C)CC[C@@]2(NC(=O)C(C)N(C)C)CC1=O` (mixture of isomers) [19-59, 3β-O-(3′,3′-Dimethylsuccinyl)-17β-((RS)-2-dimethylamino-propionamido)-21-oxolup-18-ene], the pIC50 under setting [1] was greater than 6.70.

Turning to `CC(C)C1=C2[C@H]3CC[C@@H]4[C@@]5(C)CC[C@H](OC(=O)CC(C)(C)C(=O)O)C(C)(C)[C@@H]5CC[C@@]4(C)[C@]3(C)CC[C@@]2(NC(=O)OC(C)(C)C)CC1=O` [14-1, 3β-O-(3′,3′-Dimethylsuccinyl)-17β-tert-butyloxycarbonylamino-21-oxolup-18-ene], the pIC50 was greater than 6.70 under setting [1] and greater than 6.70 under setting [2].

As for `CC(C)C1=C2[C@H]3CC[C@@H]4[C@@]5(C)CC[C@H](OC(=O)[C@H]6CCC[C@@H](C(=O)O)C6)C(C)(C)[C@@H]5CC[C@@]4(C)[C@]3(C)CC[C@@]2(NC(=O)OC(C)(C)C)CC1=O` [14-2, 3β-O-(cis-Cyclohexane-3′-carboxylic acid-1′-carboxyl)-17β-[N-tert-butyloxycarbonyl-amino]-21-oxolup-18-ene], under setting [2], the pIC50 is less than 6.00.

With `CC(C)C1=C2[C@H]3CC[C@@H]4[C@@]5(C)CC[C@H](OC(=O)[C@H]6CC[C@@](C)(C(=O)O)C6(C)C)C(C)(C)[C@@H]5CC[C@@]4(C)[C@]3(C)CC[C@@]2(NC(=O)OC(C)(C)C)CC1=O` [14-3, 3β-O-[(1′R,3′S)-1′,2′,2′-Trimethyl-cyclopentane-3′-carboxylic acid-1′-carboxyl]-17β-[N-tert-butyloxycarbonyl-amino]-21-oxolup-18-ene], under setting [1], the pIC50 was greater than 6.70.

Take `CC(C)C1=C2[C@H]3CC[C@@H]4[C@@]5(C)CC[C@H](OC(=O)CC(C)(C)C(=O)O)C(C)(C)[C@@H]5CC[C@@]4(C)[C@]3(C)CC[C@@]2(N)CC1=O` [15-1, 3β-O-(3′,3′-Dimethylsuccinyl)-17β-amino-21-oxolup-18-ene hydrochloride]: the pIC50 under setting [1] is greater than 6.70 and the pIC50 under setting [2] is greater than 6.70.

`CC(C)C1=C2C3CCC4[C@@]5(C)CC[C@H](OC(=O)[C@H]6CCC[C@@H](C(=O)O)C6)C(C)(C)C5CC[C@@]4(C)[C@]3(C)CC[C@@]2(N)CC1=O` (stereo partly drawn) [15-2, 3β-O-(cis-Cyclohexane-3′-carboxylic acid-1′-carboxyl)-17β-amino-21-oxolup-18-ene]: under setting [1], the pIC50 is less than 6.00.

As to `CC(C)C1=C2[C@H]3CC[C@@H]4[C@@]5(C)CC[C@H](OC(=O)CC(C)(C)C(=O)O)C(C)(C)[C@@H]5CC[C@@]4(C)[C@]3(C)CC[C@@]2(NC2CCN(C(=O)OC(C)(C)C)CC2)CC1=O` [16-1, 3β-O-(3′,3′-Dimethylsuccinyl)-17β-(1-tert-butyloxycarbonylpiperidine-4-amino]-21-oxolup-18-ene], the pIC50 by setting is: under setting [1], greater than 6.70; under setting [2], greater than 6.70.

For the compound `CN[C@@]12CC[C@]3(C)[C@H](CC[C@@H]4[C@@]5(C)CC[C@H](OC(=O)CC(C)(C)C(=O)O)C(C)(C)[C@@H]5CC[C@]43C)C1=C(C(C)C)C(=O)C2` [16-2, 3β-O-(3′,3′-Dimethylsuccinyl)-17β-(methylamino)-21-oxolup-18-ene], the pIC50 under setting [1] is greater than 6.70.

Take `CC(C)C1=C2[C@H]3CC[C@@H]4[C@@]5(C)CC[C@H](OC(=O)CC(C)(C)C(=O)O)C(C)(C)[C@@H]5CC[C@@]4(C)[C@]3(C)CC[C@@]2(NC(=O)NCc2ccccc2)CC1=O` [17-1, 3β-O-(3′,3′-Dimethylsuccinyl)-17β[N′-(benzyl)ureido]-21-oxolup-18-ene]: the pIC50 under setting [1] is greater than 6.70 and the pIC50 under setting [2] is greater than 6.70.

In the case of `CCNC(=O)N[C@@]12CC[C@]3(C)[C@H](CC[C@@H]4[C@@]5(C)CC[C@H](OC(=O)CC(C)(C)C(=O)O)C(C)(C)[C@@H]5CC[C@]43C)C1=C(C(C)C)C(=O)C2` [17-2, 3β-O-(3′,3′-Dimethylsuccinyl)-17β-[N′-(ethyl)ureido]-21-oxolup-18-ene], the pIC50 by setting is: under setting [1], greater than 6.70; under setting [2], greater than 6.70.
